# Assay results as given in patent US20250206713A1, “2-[(2-OXO-4-PHENYL-2H-CHROMEN-7-YL)OXY] PROPANAMIDO DERIVATIVES” (LUNELLA BIOTECH, INC., priority 2022, published 2025).
# Entries after “also recorded” stand apart in the source; their conditions may differ. Read-outs that look alike come from different tables or passages of the source.
# Legend:
# BJ1-hTERT cells [1] = experiment: SRB assay (cell viability) on BJ1-hTERT cells; settings: 72 hours
# Procedure: (§3) The human breast adenocarcinoma cell line MCF-7 was from the American Type Culture Collection (ATCC). hTERT-BJ1 cells were from Clontech, Inc. MCF-7 and hTERT-BJ 1 cells were grown in DMEM supplemented with 10% fetal bovine serum, GlutaMAX and 1% penicillin-streptomycin and incubated at 37 C in a humidified 5% C02 incubator. The medium was changed 2-3 times/week.
# (§4) The inventors initially used the sulphorhodamine (SRB) assay, which is based on the measurement of cellular protein content. After treatment for 72 hours in 96-well plates, cells were fixed with 10% trichloroacetic acid (TCA) for 1 hour in the cold room, and were dried overnight at room temperature. Then, cells were incubated with SRB for 15 min, washed twice with 1% acetic acid, and air dried for at least 1 hour. Finally, the protein-bound dye was dissolved in a 10 mM Tris, pH 8.8 solution and read using the plate reader at 540-nm. […] Prominent cytotoxicity was defined as fewer than 30% of cells still on the plate.
# MCF-7 cells [2] = experiment: SRB assay (cell viability) on MCF-7 cells; settings: for concentration at which cytotoxicity towards MCF-7 cells starts (SRB assay): 72 hours; for cytotoxicity towards MCF-7 cells (SRB assay): in words
# Procedure: as §3, §4
# MCF-7 cells [3] = experiment: 3D anchorage independent growth assay (mammosphere formation assay); format: cell-based, human; settings: for IC50: MCF-7 mammosphere formation, approximate, read from figure, read-out: IC50 against MCF-7 cells (mammosphere formation); for inhibition of MCF-7 cells across tested concentrations (mammosphere formation): in words, concentration range as given in the value; for potency relative to Compound [I], MCF-7 mammosphere formation: times / fold versus Compound [I]
# Procedure: The medium was changed 2-3 times/week.
# 3D Anchorage Independent Growth Assay: This assay is also referred to as the mammosphere formation assay. A single-cell suspension was prepared using enzymatic, and manual disaggregation (25-g needle). Then, cells were plated at a density of 500 cells/cm2 in mammosphere medium (DMEM-F12+1X B-27 Plus Supplement+20 ng/ml EGF+Pen/Strep) under non-adherent conditions, in culture dishes pre-coated with (2-hydroxyethylmethacrylate) (poly-HEMA, Sigma Aldrich Inc.), called “mammosphere plates.” Cells were grown for 5 days and maintained in a humidified incubator at 37° C. After 5 days of culture, 3D-mammospheres >50 μm were counted using an eye piece (“graticule”), and the percentage of cells plated which formed spheres was calculated and is referred to as percent mammosphere formation, and was normalized to one (1=100% MFE). 3D mammosphere formation efficiency (MFE) was analyzed in both the ATP-low and ATP-high sub-populations of cells. All 3D mammosphere experiments were performed in triplicate, at least 3 times independently.
# MCF-7 cells [4] = test system: MCF-7 cells
# Procedure: as §3, §4
# BJ1-hTERT cells [5] = test system: BJ1-hTERT cells
# Procedure: as §3, §4
# [6] = test system: MDA-MB-231 cancer cell metastasis; experiment: CAM assay, metastatic invasion (qPCR for Human Alu sequences in lower CAM); format: in vivo; settings: MDA-MB-231, lower CAM, treated daily for 8 days, different concentrations
# Procedure: (§1) Further evaluation of both efficacy and toxicity was performed on human breast tumors initiated from the MDA-MB-231 cell line in chicken embryos using the chick chorioallantoic membrane assay (“CAM Assay”) available from Inovotion (Cambridge, Massachusetts). […] An inoculum of 1×10^6 MDA-MB-231 cells was added onto the CAM of each egg (day E9) and then eggs were randomized into groups. On day E10, tumors were detectable and they were then treated daily for 8 days with vehicle alone (1% DMSO in PBS), or a compound of the present approach. After 8 days of drug administration, on day E18 all tumors were weighed, and the lower CAM was collected to evaluate the number of metastatic cells, as analyzed by qPCR with specific primers for Human Alu sequences.
# [7] = test system: human breast tumors initiated from the MDA-MB-231 cell line in chicken embryos; experiment: CAM assay, tumor growth; format: in vivo; settings: MDA-MB-231 tumors, treated daily for 8 days, different concentrations
# Procedure: as §1
# adherent MCF7 cells [8] = experiment: Glycolytic function analysis (ECAR); format: cell-based, human; settings: 2.5 μM, versus control
# Procedure: (§2) FIGS. 11A-D show mitochondrial respiration, basal respiration, maximal respiration, and ATP production results for metabolic flux analysis of adherent MCF7 cells were treated with Compound [III] at 2.5 μM. After treatment, the mitochondrial oxygen consumption rate (OCR) was measured using the Seahorse XFe96 analyzer. Data is expressed as percentage of OCR versus control.
# FIGS. 12A-D show the results of glycolytic function analysis for treatment with Compound [III] at 2.5 μM. Glycolytic function, basal glycolysis, induced glycolysis, and compensatory glycolysis, respectively. […] All data was normalized for cell number. Statistical analysis was conducted using one-way ANOVA.
# chick embryo = experiment: CAM assay, chick embryo toxicity; format: in vivo, chicken; settings: chick embryos; for Alive / Dead: of 18 total
# Procedure: as §1
# adherent MCF7 cells [9] = experiment: Metabolic flux analysis, mitochondrial oxygen consumption rate (Seahorse XFe96); format: cell-based, human; settings: 2.5 μM, versus vehicle-alone control
# Procedure: as §2
compound,measurement,setting,value
"CCCCCCCCCCCCCC(=O)Nc1ccc(-c2cc(=O)oc3cc(O[C@H](C)C(=O)N4CCC[C@H](C(=O)O)C4)ccc23)c(Cl)c1 [Compound [II], (3S)-1-[(2R)-2-[4-[2-Chloro-4-(tetradecanoylamino)phenyl]-2-oxo-chromen-7-yl]oxypropanoyl]piperidine-3-carboxylic acid]",concentration at which cytotoxicity towards BJ1-hTERT cells starts (SRB assay),BJ1-hTERT cells [1],≥ 50 µM
same,concentration at which cytotoxicity towards MCF-7 cells starts (SRB assay),MCF-7 cells [2],≥ 50 µM
same,IC50,"MCF-7 cells [3]; Homo sapiens, MCF7",~5 µM
same,inhibition at 10 µM,"MCF-7 cells [3]; Homo sapiens, MCF7, at 10 μM",> 50%
same,inhibition at 100 µM,"MCF-7 cells [3]; Homo sapiens, MCF7",100%
same,inhibition of MCF-7 cells across tested concentrations (mammosphere formation),MCF-7 cells [3],"dose-dependent inhibition of MCF-7 cells at all tested concentrations, ranging from 0.1 μM to 100 μM"
same,"potency relative to Compound [I], MCF-7 mammosphere formation",MCF-7 cells [3],10
"CCCCCCCCCCCCCC(=O)Nc1cc(F)ccc1-c1cc(=O)oc2cc(O[C@H](C)C(=O)N(CC)C(=O)NCCCN(C)C)ccc12 [Compound [IV], N-[2-[7-[(1R)-2-[3-(Dimethylamino)propylcarbamoyl-ethyl-amino]-1-methyl-2-oxo-ethoxy]-2-oxo-chromen-4-yl]-5-fluoro-phenyl]tetradecanamide]",concentration at which cytotoxicity towards MCF-7 cells starts (SRB assay),MCF-7 cells [2],≥ 5 µM
same,inhibition at 2.5 µM,"MCF-7 cells [3]; Homo sapiens, MCF7, at 2.5 μM",> 50%
same,inhibition of MCF-7 cells (mammosphere formation),MCF-7 cells [3]; at 10 μM,near complete inhibition
same,inhibition of MCF-7 cells across tested concentrations (mammosphere formation),MCF-7 cells [3],"dose-dependent inhibition of MCF-7 cells at all tested concentrations, ranging from 1 μM to 10 μM"
"C[C@@H](Oc1ccc2c(-c3ccc(F)cc3Cl)cc(=O)oc2c1)C(=O)N1CCC[C@H](C(=O)O)C1 [Compound [I], 3-piperidinecarboxylic acid, 1-[(2R)-2-[[4-(2-chloro-4-fluorophenyl)-2-oxo-2H-1-benzopyran-7-yl]oxy]-1-oxopropyl]-, (3S)-, reference compound]",IC50,"MCF-7 cells [3]; Homo sapiens, MCF7",~50 µM
same,inhibition at 100 µM,"MCF-7 cells [3]; Homo sapiens, MCF7",> 50%
same,inhibition of MCF-7 cells (mammosphere formation),MCF-7 cells [3]; at 5 μM,showed inhibition
same,cytotoxicity towards MCF-7 cells (SRB assay),MCF-7 cells [4],did not exhibit cytotoxicity
same,cytotoxicity towards BJ1-hTERT cells (SRB assay),BJ1-hTERT cells [5],did not exhibit cytotoxicity
"CCCCCCCCCCCCCC(=O)Nc1cc(F)ccc1-c1cc(=O)oc2cc(O[C@H](C)C(=O)O)ccc12 [Compound [VII], (2R)-2-[4-[4-Fluoro-2-(tetradecanoylamino)phenyl]-2-oxo-chromen-7-yl]oxypropanoic acid]",cytotoxicity towards MCF-7 cells (SRB assay),MCF-7 cells [2],little toxicity across the tested concentrations below 100 μM
same,inhibition at 1 µM,"MCF-7 cells [3]; Homo sapiens, MCF7, at 1 μM",> 50%
same,inhibition at 100 µM,"MCF-7 cells [3]; Homo sapiens, MCF7",100%
same,inhibition of MCF-7 cells across tested concentrations (mammosphere formation),MCF-7 cells [3],"inhibitory activity can be seen at all tested concentrations, from 1 μM to 100 μM"
"CCCCCCCCCCCCCC(=O)Nc1ccc(-c2cc(=O)oc3cc(O[C@H](C)C(=O)O)ccc23)c(Cl)c1 [Compound [VI], (2R)-2-[4-[2-chloro-4-(tetradecanoylamino)phenyl]-2-oxo-chromen-7-yl]oxypropanoic acid]",cytotoxicity towards MCF-7 cells (SRB assay),MCF-7 cells [2],little toxicity across the tested concentrations
same,inhibition at 10 µM,"MCF-7 cells [3]; Homo sapiens, MCF7, at 10 μM",> 50%
same,inhibition of MCF-7 cells across tested concentrations (mammosphere formation),MCF-7 cells [3],"inhibitory activity can be seen at all tested concentrations, from 1 μM to 100 μM"
"CCCCCCCCCCCCCC(=O)Nc1ccc(-c2cc(=O)oc3cc(O[C@H](C)C(=O)N(CC)CC(=O)NCCN(C)C)ccc23)c(Cl)c1 [Compound [V], N-[3-Chloro-4-[7-[(1R)-2-[[2-[2-(dimethylamino)ethylamino]-2-oxo-ethyl]-ethyl-amino]-1-methyl-2-oxo-ethoxy]-2-oxo-chromen-4-yl]phenyl]tetradecanamide]",concentration at which cytotoxicity towards BJ1-hTERT cells starts (SRB assay),BJ1-hTERT cells [1],≥ 5 µM
same,concentration at which cytotoxicity towards MCF-7 cells starts (SRB assay),MCF-7 cells [2],≥ 5 µM
same,inhibition at 0.5 µM,"MCF-7 cells [3]; Homo sapiens, MCF7, at 0.5 μM",> 50%
same,inhibition at 5 µM,"MCF-7 cells [3]; Homo sapiens, MCF7, at 5 μM",100%
same,inhibition of MCF-7 cells across tested concentrations (mammosphere formation),MCF-7 cells [3],"effectively inhibited MCF-7 cells at all tested concentrations, ranging from 0.5 μM to 10 μM"
tert-Butyl-N-[3-chloro-4-[7-[(1R)-2-[[2-[2-(dimethylamino)ethylamino]-2-oxo-ethyl]-ethyl-amino]-1-methyl-2-oxo-ethoxy]-2-oxo-chromen-4-yl]phenyl]carbamate [Compound [III]],metastatic invasion (CAM assay),[6],dose-dependent reduction in metastasis
same,tumor growth (CAM assay),[7],dose-dependent reduction in tumor growth
same,ECAR levels (glycolysis),adherent MCF7 cells [8],largely comparable between the control and the demonstrative compound; also recorded: little or no effects on glycolysis
same,% Alive,chick embryo; 100 μM,83.33%
same,% Dead,chick embryo; 100 μM,16.67%
same,Alive,chick embryo; 100 μM,15
same,Dead,chick embryo; 100 μM,3
same,% Alive,chick embryo; 250 μM,100%
same,% Dead,chick embryo; 250 μM,0%
same,Alive,chick embryo; 250 μM,18
same,Dead,chick embryo; 250 μM,0
same,% Alive,chick embryo; 500 μM,94.44%
same,% Dead,chick embryo; 500 μM,5.56%
same,Alive,chick embryo; 500 μM,17
same,Dead,chick embryo; 500 μM,1
same,toxicity assessment (CAM assay),chick embryo; in words,non-toxic towards normal cells
same,concentration at which cytotoxicity towards BJ1-hTERT cells starts (SRB assay),BJ1-hTERT cells [1],≥ 10 µM
same,ATP production levels,adherent MCF7 cells [9],significantly inhibited
same,basal OCR (basal respiration),adherent MCF7 cells [9],significantly inhibited
same,maximal OCR (maximal respiration),adherent MCF7 cells [9],significantly inhibited
same,concentration at which cytotoxicity towards MCF-7 cells starts (SRB assay),MCF-7 cells [2],≥ 10 µM
same,inhibition of MCF-7 cells across tested concentrations (mammosphere formation),MCF-7 cells [3],"dose-dependent inhibition of MCF-7 cells at all tested concentrations, ranging from 1 μM to 10 μM"
same,"potency relative to Compound [I], MCF-7 mammosphere formation",MCF-7 cells [3],twenty-fold improvement
